According to patent publication US20040076974A1, “Liver necrosis predictive genes” (priority 2002, published 2004):
Where “and” joins values, the source holds several entries; their conditions need not be identical. Equal entries are not always repeated. Where two headings read alike, the source gives them in different places.

Test system: toxicologically relevant rat genes (rat CT array)
[1] = 24 h, dose 20, ratio treatment/control, listed as PBARB
[2] = 24 h, dose 80, ratio treatment/control, listed as PBARB

## CCC1(c2ccccc2)C(=O)NC(=O)NC1=O [phenobarbital]
[1]
  3-hydroxyisobutyrate dehydrogenase: 1.08 and 1.006
  14-3-3 zeta: 1.208 and 1.207
  17-beta hydroxysteroid dehydrogenase, type 2: 1.581 and 1.324
  60S ribosomal protein L6: 1.352 and 1.202
  ATPase inhibitor (rat mitochondrial IF1 protein): 0.6195 and 0.719
  Alpha 1 - inhibitor III: 0.5583 and 0.815
  Alpha-2-macroglobulin: 0.7668 and 0.9845
  Bax (alpha): 1.204 and 1.029
  Beta-actin: 1.31 and 1.008
  Calpactin I heavy chain: 1.101 and 1.191
  Carbamyl phosphate synthetase I: 0.7852 and 0.892
  Carbonic anhydrase III: 0.977 and 0.617
  Carbonyl reductase: 0.9613 and 0.916
  Cathepsin L, sequence 2: 1.563 and 1.367
  Cofilin: 0.9117
  Cyclin G: 1
  DNA polymerase beta: 1.056
  Dynamin-1 (D100): 0.8477 and 0.8322
  Endogenous retroviral sequence, 5′ and 3′ LTR: 0.9945 and 0.7515
  Enolase alpha: 1.238 and 0.9827
  Epidermal growth factor: 0.8761 and 0.9811
  Equilbrative nitrobenzylthioinosine-sensitive nucleoside transporter: 1.018 and 0.7905
  Extracellular-signal-regulated kinase 1: 1.131 and 0.7366
  Fas antigen: 1.246 and 1.226
  Gadd45: 1.009 and 1.065
  Gadd153: 1.013 and 1.011
  Gamma-actin, cytoplasmic: 1.054 and 0.8811
  Glucose-regulated protein 78: 1.261 and 1.059
  Heme oxygenase: 0.9438 and 0.9315
  Hepatic lipase: 0.6998 and 0.9047
  ID-1: 0.8693 and 1.008
  IgE binding protein: 0.8925 and 0.9114
  IkB-a: 1.305 and 0.9599
  Insulin-like growth factor I: 0.7485 and 0.9327
  Insulin-like growth factor binding protein 1: 1.727 and 1.357
  Insulin-like growth factor binding protein 3: 0.8872 and 0.9985
  Integrin beta1: 1.272 and 1.092
  L-gulono-gamma-lactone oxidase: 1.051 and 0.8183
  Liver fatty acid binding protein: 1.109 and 1.478
  MAP kinase kinase: 1.185
  Macrophage inflammatory protein-2 alpha: 1.188 and 1.009
  Matrin F/G: 1.181 and 1.074
  Matrix metalloproteinase-1: 1.164
  Melanoma-associated antigen ME491: 0.9925 and 1.119
  Monocyte chemotactic protein receptor (CCR2): 1.134
  Multidrug resistant protein-2: 1.635 and 1.128
  N-hydroxy-2-acetylaminofluorene sulfotransferase (ST1C1): 0.9899 and 0.8091
  Organic anion transporter 3: 1.248 and 1.132
  Organic cation transporter 3: 1.276 and 1.184
  Ornithine decarboxylase: 1.253 and 1.099
  PAR interacting protein: 1.254 and 1.247
  Phase-1 RCT 252: 0.9399
  Phase-1 RCT-15: 1.589
  Phase-1 RCT-33: 1.471
  Phase-1 RCT-36: 1.441
  Phase-1 RCT-39: 1.098 and 0.9997
  Phase-1 RCT-48: 0.8561
  Phase-1 RCT-49: 0.9102
  Phase-1 RCT-50: 1.003 and 0.9822
  Phase-1 RCT-83: 0.8335
  Phase-1 RCT-88: 0.963
  Phase-1 RCT-102: 0.6239
  Phase-1 RCT-117: 0.7039
  Phase-1 RCT-123: 0.9541
  Phase-1 RCT-127: 0.7569
  Phase-1 RCT-128: 0.7394 and 0.7417
  Phase-1 RCT-137: 0.7926
  Phase-1 RCT-179: 0.8634 and 0.9704
  Phase-1 RCT-181: 0.9556
  Phase-1 RCT-182: 0.8988
  Phase-1 RCT-189: 0.9743
  Phase-1 RCT-191: 1.518 and 1.291
  Phase-1 RCT-213: 1.105
  Phase-1 RCT-239: 0.8651
  Phase-1 RCT-242: 0.9504
  Phase-1 RCT-256: 0.9833
  Phase-1 RCT-258: 1.096
  Phase-1 RCT-264: 0.5841
  Phase-1 RCT-288: 0.674
  Proliferating cell nuclear antigen gene: 1.31 and 0.9115
  Ribosomal protein L13A: 1.101 and 1.176
  Ribosomal protein S8: 1.41 and 1.396
  Senescence marker protein-30: 0.7967 and 0.7544
  Sodium/bile acid cotransporter: 1.606 and 1.619
  Superoxide dismutase Mn: 1.251 and 1.032
  Thymosin beta-10: 1.095
  Transthyretin: 0.579 and 0.7326
  Ubiquitin conjugating enzyme (RAD 6 homologue): 1.219 and 1.207
  Uncoupling protein 2: 1.028 and 0.9917
  Zinc finger protein: 1.033 and 1.014
  c-jun: 0.8724 and 0.8417
  c-myc: 1.263 and 0.7701
  p53: 1.141 and 1.123
  {Ribosomal protein L6}: 1.13 and 0.9995
[2]
  3-hydroxyisobutyrate dehydrogenase: 0.9364 and 1.012 and 0.9868
  14-3-3 zeta: 1.349 and 1.439 and 1.37
  17-beta hydroxysteroid dehydrogenase, type 2: 0.7562 and 0.7908 and 0.9571
  60S ribosomal protein L6: 1.307 and 1.425
  ATPase inhibitor (rat mitochondrial IF1 protein): 0.6848 and 0.7077 and 0.6801
  Aldehyde dehydrogenase, microsomal: 1.087 and 1.048
  Alpha 1 - inhibitor III: 0.5856 and 0.4905 and 0.5622
  Alpha-2-macroglobulin: 0.9113 and 0.8593 and 0.9766
  Bax (alpha): 1.058 and 1.091 and 1.122
  Beta-actin: 1.224 and 1.246 and 1.145
  Calpactin I heavy chain: 1.134 and 1.063
  Carbamyl phosphate synthetase I: 0.8575 and 0.7797 and 0.7692
  Carbonyl reductase: 1.059 and 1.125 and 0.962
  Cathepsin L, sequence 2: 1.574 and 1.633
  Cofilin: 0.9114 and 0.8537 and 0.8627
  Cyclin G: 1.002 and 1.066 and 1.079
  DNA polymerase beta: 1.046 and 1.107
  Dynamin-1 (D100): 0.9128 and 0.9717 and 0.9326
  Endogenous retroviral sequence, 5′ and 3′ LTR: 1.21 and 0.7011 and 0.7797
  Enolase alpha: 1.121 and 1.118 and 1.149
  Epidermal growth factor: 1.003 and 1.092 and 1.144
  Equilbrative nitrobenzylthioinosine-sensitive nucleoside transporter: 0.9518 and 0.8269 and 0.9012
  Extracellular-signal-regulated kinase 1: 1.5 and 1.071 and 0.8668
  Fas antigen: 1.331 and 1.404 and 1.329
  Gadd45: 1.044 and 0.9552 and 1.022
  Gadd153: 1.008 and 0.989 and 0.9738
  Gamma-actin, cytoplasmic: 1.252 and 1.167 and 1.207
  Glucose-regulated protein 78: 1.679 and 1.668 and 1.487
  Heme oxygenase: 0.7677 and 0.7554 and 0.8649
  Hepatic lipase: 0.7302 and 1.208 and 0.6736
  ID-1: 1.015 (2×) and 0.9098
  IgE binding protein: 0.9374 and 0.898
  IkB-a: 1.024 and 1.103 and 1.096
  Insulin-like growth factor I: 0.6186 and 0.52 and 0.7677
  Insulin-like growth factor binding protein 1: 1.514 and 1.628
  Insulin-like growth factor binding protein 3: 0.6158 and 0.8747
  Integrin beta1: 1.29 and 1.37 and 1.335
  L-gulono-gamma-lactone oxidase: 0.6365 and 0.6402 and 0.7055
  Liver fatty acid binding protein: 0.8038 and 0.7393 and 0.8984
  MAP kinase kinase: 1.002 and 1.108
  Macrophage inflammatory protein-2 alpha: 1.093 and 1.12 and 1.177
  Matrin F/G: 0.9519 and 0.9552 and 1.004
  Matrix metalloproteinase-1: 1.245 and 1.194 and 1.355
  Melanoma-associated antigen ME491: 1.089 and 0.9854 and 1.045
  Monocyte chemotactic protein receptor (CCR2): 1.034 and 1.086 and 1.071
  Multidrug resistant protein-2: 1.301 and 1.556 and 1.405
  N-hydroxy-2-acetylaminofluorene sulfotransferase (ST1C1): 0.7492 and 0.7954 and 0.8182
  Nucleoside diphosphate kinase beta isoform: 1.36 and 1.288 and 1.362
  Organic anion transporter 3: 1.251 and 1.195 and 1.053
  Organic cation transporter 3: 1.211 and 1.277 and 1.36
  Ornithine decarboxylase: 1.262 and 1.294 and 1.161
  PAR interacting protein: 1.196 and 1.432 and 1.205
  Phase-1 RCT 252: 0.772 and 0.7405
  Phase-1 RCT-15: 1
  Phase-1 RCT-33: 1.288
  Phase-1 RCT-37: 1.101
  Phase-1 RCT-39: 1.631 and 1.876 and 2.263
  Phase-1 RCT-40: 0.9657 and 1.099
  Phase-1 RCT-48: 0.6407
  Phase-1 RCT-72: 0.9031 and 0.8598
  Phase-1 RCT-83: 0.7773
  Phase-1 RCT-88: 0.8891
  Phase-1 RCT-89: 0.9166
  Phase-1 RCT-102: 0.7133 and 0.4783 and 0.5208
  Phase-1 RCT-123: 0.9384 and 1.104
  Phase-1 RCT-137: 0.8817
  Phase-1 RCT-154: 1.303
  Phase-1 RCT-180: 1.296
  Phase-1 RCT-181: 0.9889
  Phase-1 RCT-182: 0.9123
  Phase-1 RCT-189: 0.8764 and 0.754 and 0.6881
  Phase-1 RCT-191: 1.599
  Phase-1 RCT-214: 0.9342 and 1.408
  Phase-1 RCT-239: 0.5982 and 0.595
  Phase-1 RCT-241: 1.293
  Phase-1 RCT-242: 0.9855 and 0.8679 and 0.8934
  Phase-1 RCT-256: 0.8602
  Phase-1 RCT-264: 0.5789 and 0.5647 and 0.5936
  Phase-1 RCT-270: 0.9344 and 0.9311
  Phase-1 RCT-271: 1.204 and 1.753
  Phase-1 RCT-291: 1.285
  Phase-1 RCT-296: 0.8165
  Proliferating cell nuclear antigen gene: 1.007 and 0.9415 and 1.108
  Ribosomal protein L13A: 1.209 and 1.299
  Ribosomal protein S8: 1.309 and 1.3 and 1.45
  Ribosomal protein S17: 1.52
  Senescence marker protein-30: 0.4601 and 0.4705 and 0.6829
  Sodium/bile acid cotransporter: 2.871 and 2.806 and 2.757
  Superoxide dismutase Mn: 1.266 and 1.52 and 1.416
  Thymosin beta-10: 0.9766 and 1.212
  Transthyretin: 0.5528 and 0.5255 and 0.5896
  Ubiquitin conjugating enzyme (RAD 6 homologue): 1.202 and 1.253 and 1.239
  Uncoupling protein 2: 1.015 and 0.8977 and 1.15
  Zinc finger protein: 0.9857 and 1.001 and 0.984
  c-jun: 0.6641 and 0.6214 and 0.6871
  c-myc: 1.056 and 0.76 and 0.7591
  p53: 1.049 and 1.111 and 0.9729
  {Ribosomal protein L6}: 1.301
rat, in vivo
  Paraoxonase 1: 0.7914 and 0.865 and 0.7219 and 0.8315 and 0.967
